For 87 compounds, melting point results are on record in a melting point compilation (Tetko et al.; mined from patent text by program, amines drawn as free bases though some values may be those of a salt).

Where only a bound is given, the exact number is not on record here.

For `C[C@@H]1C(=O)c2ccccc2O[C@H]1c1ccccc1` (relative stereo), the melting point lay within 99 to 100 °C.

In turn, `CCOC(=O)c1c(C)n(C(C)=O)c(=O)n1C(C)=O` had a melting point of 56 to 58 °C.

Compound `COc1cc2c(cc1OC)-c1ncc(C#N)c(=O)n1CC2` returned a melting point of 261 to 262 °C.

The compound `O=C(c1ccc(-c2cccs2)cc1)N1Cc2ccccc2Nc2ccccc21` yielded a melting point of 114 to 116 °C.

Regarding `COc1ccc2c(Cc3ccco3)nnc(-c3ccccc3)c2c1`, the melting point fell in the range of 128 to 129 °C.

For the compound `CCOC(=O)C(=O)c1ccc2c(c1)CCO2`, the melting point lay in the range of 139 to 141 °C.

Consider `COc1cc2c3c([nH]c2c(Cl)c1Cl)C(=O)NCC3`, for which the melting point fell in the range of 263 to 264 °C.

Consider `CNc1nc(-c2cccc(-c3ccc4nccn4c3)c2)c2cc(OC)c(OC)cc2n1`, for which the melting point fell in the range of 237 to 239 °C.

`COC(=O)C1=C(N)NC(C)=C([N+](=O)[O-])C1c1ccccc1S(=O)(=O)CCCCN1CCN(c2ccccc2OC)CC1` (configuration not stated) gave a melting point of 145 to 147 °C.

Compound `O=C(c1cccc2cc[nH]c12)N1CCN(c2ccccc2)CC1` gave a melting point of 217 to 219 °C.

`c1ccc(COc2ccc(-c3cscn3)cc2)cc1`: the melting point lay in the range of 109 to 110 °C.

As to `Cn1c(C(F)(F)F)cc(=O)n(-c2c(F)cc(Cl)c3nc(C(C)(C)C)oc23)c1=O`, the melting point was in the range of 68 to 70 °C.

In turn, `COCCc1nc2c(N)nc3ccccc3c2n1CCCNS(=O)(=O)c1cccc2c(N(C)C)cccc12` yielded a melting point of 210 to 215 °C.

For `COc1ccc(S(=O)(=O)C(C)(Cc2ccccc2)C(=O)NO)cc1` (configuration not stated), the melting point came to 58 °C.

Compound `CCOC(=O)CC(NC(=O)c1ccc(OC)cc1)C(=O)c1ccco1` (configuration not stated) gave a melting point of 104 to 106 °C.

The compound `CC(C)(C)C(NC(=O)c1ccc(-c2ccco2)cc1)Nc1c(Nc2cccnc2)c(=O)c1=O` (configuration not stated) showed a melting point of 230 to 232 °C.

In turn, `Brc1cc(Br)c(COCc2cc(Br)c(Br)cc2Br)cc1Br` registered a melting point of 162 to 164 °C.

`Cc1cccc(-n2nc(C(F)(F)F)cc2-c2ccc(S(C)(=O)=O)c(F)c2)c1` yielded a melting point of 129 to 130 °C.

`Nc1cc(Br)c(OC(F)(F)C(F)Cl)cc1[N+](=O)[O-]` (configuration not stated) yielded a melting point of 90 °C.

In turn, `CCc1noc2c(Cl)c3c(cc12)CC(C(=O)O)O3` (configuration not stated) returned a melting point of 213 to 215 °C.

Turning to `COC1(c2ccccc2)OC=C(c2ccc(CCC(=O)O)cc2)C1=O` (configuration not stated), the melting point lay in the range of 117 to 120 °C.

In the case of `CN1CCC[C@H]1c1cnccc1C(O)(c1ccccc1)c1ccccc1`, the melting point lay in the range of 232 to 234 °C.

In the case of `Cn1c(=O)c(-c2ccc(Cl)cc2Cl)cc2c3cc(-c4csc(COC(=O)C(C)(C)C)n4)ccc3n(C)c21`, the melting point lay in the range of 193 to 195 °C.

Regarding `CCOC(=O)c1cnc(N)nc1O`, the melting point turned out to be 280 °C.

`O=Cc1cc(-c2ccccc2)nn1Cc1ccc(Cl)cc1Cl` displayed a melting point of 135 to 137 °C.

On to `CC(=O)c1c(CCN2CCN(C)CC2)nc(-c2ccccc2)nc1-c1cccc([N+](=O)[O-])c1`, for which the melting point is 88 to 91 °C.

For the compound `COCCOc1ccc(N=Nc2cc(S(=O)(=O)N3CCCC3)c(O)c3cccc(NS(C)(=O)=O)c23)cc1S(=O)(=O)Cl`, the melting point is 184 to 187 °C.

The compound `Cc1c(-c2csc(-c3ccncc3)n2)c(=O)[nH]c2ccccc12` gave a melting point above 250 °C.

Consider `COc1ccc(CNC(=O)C2=C(C(=O)Nc3cc(OC4CCCC4)c(Cl)cc3F)CCCC2)cc1`, for which the melting point fell in the range of 161 to 162 °C.

In turn, `COc1cccc2c(Nc3ccccc3C)nc(Nc3ccccc3C)nc12` gave a melting point of 185 to 187 °C.

The compound `CSc1nn2c(O)cc(O)nc2c1S(=O)(=O)c1ccccc1` had a melting point above 230 °C.

`CCOC(=O)CCP(Br)(c1ccccc1)(c1ccccc1)c1ccccc1` yielded a melting point of 150 °C.

`Cc1nc[nH]c1CSCCN=C(NC#N)NCCO`: the melting point lay within 146 to 147 °C.

Turning to `Nc1ncc(C(=O)NCc2ccc(C(F)(F)F)cc2)c(N2CCCC2)n1`, the melting point lay in the range of 227 to 228 °C.

With `COP(=S)(OC)SCc1nc2sccn2c(=O)c1Cl`, the melting point lay in the range of 125 to 130 °C.

As for `NS(=O)(=O)c1cc(C(=O)O)cc(NCCc2ccncc2)c1-c1ccccc1`, the melting point fell in the range of 216 to 218 °C.

Compound `CC(C)(O)c1cc(C#N)ccc1O` yielded a melting point of 129 to 130 °C.

The compound `CCOC(=O)C1=C(C)Nc2nc(N3CCOCC3)nc(N3CCOCC3)c2C1c1ccccc1C(F)(F)F` (configuration not stated) showed a melting point of 214 °C.

The compound `Nc1nc(O)c2c(n1)NCC(CCc1nc(C(=O)N[C@@H](CCC(=O)O)C(=O)O)cs1)C2` (some centres not stated) returned a melting point of 210 to 212 °C.

Turning to `COc1cccc(CO)c1CO`, the melting point turned out to be 95 °C.

`CCCc1ccc(-c2ccc(-c3cccs3)c(F)c2)cc1` showed a melting point of 88 °C.

Take `O=[N+]([O-])c1ccc(-n2nnnc2-c2ccccc2-c2ccc(CBr)cc2)cc1`: the melting point is 192 to 195 °C.

With `O=C(c1cc(O)c2occc2c1)c1ccco1`, the melting point fell in the range of 140 to 142 °C.

For `Cc1cc(N2CC=CCC2)nn2cnnc12`, the melting point is 103 to 106 °C.

In turn, `Cc1cc(Cl)cc(C(=O)NC(C)C)c1NC(=O)c1cc(C(F)(F)F)nn1-c1ncccc1Cl` returned a melting point of 195 to 196 °C.

`Cn1cc(C2=C(c3cn(-c4ccccc4)c4ccccc34)C(=O)NC2=O)c2ccccc21` yielded a melting point of 135 to 137 °C.

With `O=C(O)C1CCc2nc3cc(Cl)ccc3c(Cl)c2C1` (configuration not stated), the melting point is above 250 °C.

Turning to `CCOC(=O)C1=C(C)NC(=S)N(C(=O)OCC)C1c1cccc(OCc2ccccc2)c1` (configuration not stated), the melting point was 119 to 121 °C.

`COc1cc(OC)c(-c2cc3ccccc3[nH]2)cc1C=CC(=O)c1ccc(S(=O)(=O)NC(C)=O)cc1`: the melting point is 218 to 220 °C.

`COc1ccc(-c2ccc(-c3ccccc3)nc2-c2ccc(OCCN3CCCC3)cc2)cc1` showed a melting point of 100 to 103 °C.

`Cc1ccc(C)c(COc2ccc(N)nn2)c1`: the melting point lay in the range of 109 to 111 °C.

The compound `CC(C)(OC(=O)NC(Cc1c[nH]c2ccccc12)C(=O)NC(Cc1ccccc1)C(N)=O)C(Cl)(Cl)Cl` (configuration not stated) registered a melting point of 187 °C.

The compound `O=C(O)C(=O)c1ccc(O)c(Cl)c1` yielded a melting point of 116 to 117 °C.

`COc1ccc(NN)c(C)c1` registered a melting point of 105 °C.

For the compound `Nc1nc(N)c(CCCN(C(=O)C(F)(F)F)c2ccc(C(=O)O)cc2)c(=O)[nH]1`, the melting point lay in the range of 229 to 230 °C.

Take `O=C(Oc1ccccc1)OC1C2=C(OCCS2)C(=O)N1c1ccc2ccc(Cl)nc2n1` (configuration not stated): the melting point came out at 270 °C.

Take `CCOC(=O)CCc1cc(-c2cc3ccccc3c(=O)o2)ccc1OC`: the melting point fell in the range of 105 to 106 °C.

Compound `O=C(c1cc(=O)c2cc3[nH]c(=O)oc3cc2[nH]1)N1CCC(Cc2ccccc2)CC1` returned a melting point of 215 °C.

For `Cc1ccc(S(=O)(=O)N2CCC(c3cccc4c3CCCC(C(=O)O)=C4)CC2)cc1`, the melting point lay in the range of 255 to 257 °C.

Compound `COc1ccc(CN2CCc3c(nc4ccc(OC)cc4c3-c3ccc(OC)cc3)C2=O)cc1` came in with a melting point of 132 to 134 °C.

In turn, `COc1cc2c(cc1O)CCN(Cc1cc(OC)c(OC)c(OC)c1)C2` came in with a melting point of 170 to 171 °C.

`CS(=O)(=O)c1ccc(-n2nc(C(F)(F)F)cc2-c2ccc(-c3cscn3)c(F)c2)cc1F` showed a melting point of 156 to 158 °C.

`C=CC(=O)NC(C)(C)CS(=O)(=O)OC`: the melting point amounted to 80.6 °C.

Take `CCCC1CCC(=O)C=C1c1ccc(OCC(=O)O)c(Cl)c1Cl` (configuration not stated): the melting point was 177 to 178 °C.

The compound `CCOC(=O)C1CC2CC(CP(=O)(O)O)CCC2CN1` (configuration not stated) yielded a melting point of 184 to 185 °C.

`O=[N+]([O-])c1cccc(-c2cc3ncnc(Nc4ccc5[nH]ccc5c4)c3s2)c1` showed a melting point of 175 to 183 °C.

`CC(c1ccc(F)cc1)n1c(NC2CCN(CCc3ccccc3)CC2)nc2ccccc21` (configuration not stated) yielded a melting point of 162 °C.

Take `CC(C)(O)C1CC(c2ccc(-c3ccc(N4C[C@H](Cn5ccnn5)OC4=O)cc3F)cn2)=NO1` (some centres not stated): the melting point was 197 °C.

`CCOC(=O)C1=C(C)NC(C)=C(/C=C/S(=O)(=O)NC(C)C)C1Cc1cccc([N+](=O)[O-])c1` (configuration not stated) returned a melting point of 191 to 193 °C.

Turning to `O=C(O)/C=C/C=C/C=C/C1=Cc2ccccc2OC1`, the melting point lay in the range of 206 to 208 °C.

Regarding `O=C(O)CCCNC(=O)c1ccccc1NC(=O)c1ccccc1[N+](=O)[O-]`, the melting point was 142 to 144 °C.

`OCCC(CCS)c1ccncc1` (configuration not stated) displayed a melting point of 50 to 52 °C.

For the compound `CCCCN(CCCC)CCCOc1ccc(S(=O)(=O)c2c(C(C)(C)C)cn3ccccc23)cc1`, the melting point fell in the range of 90 to 92 °C.

`Cc1cc2cc(O)ccc2c(Oc2ccc(/C=C/C(=O)O)cc2)c1-c1ccc(O)cc1`: the melting point lay in the range of 162 to 164 °C.

Turning to `C[C@]12CC[C@@H]3C4=C(CC[C@H]3[C@@H]1CCC21CC(O)CO1)CC(=O)CC4` (some centres not stated), the melting point was in the range of 118 to 123 °C.

Take `Clc1ccnc2ncnn12`: the melting point was 190 °C.

As to `O=C(O)c1cn(-c2ccc(F)cc2F)c2nc(Cl)c(F)cc2c1=O`, the melting point lay within 242 to 244 °C.

As for `Cc1cc(N)ccc1NC(=O)c1ccc(N)cc1`, the melting point fell in the range of 111 to 115 °C.

With `CCCNC(=O)N1CCc2cc(S(=O)(=O)n3cc(-c4ccccc4)[nH]c3=O)ccc21`, the melting point fell in the range of 165 to 167 °C.

For `COC(=O)NN(C(=O)Cl)c1ccccc1OCCSC`, the melting point fell in the range of 55 to 57 °C.

As to `CC1(c2ccccc2)OC(C(=O)O)Oc2ccc(Cl)cc21` (configuration not stated), the melting point was 144 °C.

For the compound `COc1cc(CC(=O)Nc2ccc(C3CN(C(C)=O)CC3C(=O)O)cc2)ccc1NC(=O)Nc1ccccc1C` (configuration not stated), the melting point was determined as 242 °C.

For the compound `O=S1(=O)Nc2cccc3c2N1CCC3`, the melting point stood at 96 °C.

The compound `CCC(=O)c1ccc(S(=O)(=O)c2ccccc2)cc1` gave a melting point of 83 to 84 °C.

For `CC(C)(OCc1cc2nc(Cl)ccc2n1S(=O)(=O)c1ccc2c(c1)CCO2)C(=O)O`, the melting point turned out to be 169 °C.

Regarding `CCOC(=O)C(=COS(=O)(=O)c1ccc(C)cc1)c1ccccc1`, the melting point lay within 159 to 160 °C.

`C[C@H]1CN(Cc2ccccc2)C[C@H]1NC(=O)OC(C)(C)C` (relative stereo) returned a melting point of 132 to 133 °C.
